In patent publication US8536192B2, “6,7-unsaturated-7-carbamoyl substituted morphinan derivative” (priority 2005, dated 2013):
Like-named read-outs stand apart in the source and are kept apart here.

Columns and labels:
opioid δ receptor = opioid δ receptor (Rattus norvegicus (Rat), UniProt P33533); assay: Binding assay of opioid δ receptor ([3H]-DADLE, rat cerebrum membrane)
Protocol: (§1) 1) Method of Preparing Membrane Specimen for Binding Assay
(§2) A rat cerebrum (Slc: SD) which had been stored at −80° C. was used. To a cerebrum which had been weighed was added a 20-fold amount of ice-cooled 10 mM Tris-HCl buffer (pH 7.0), and the mixture was homogenized (25000 rpm, 30 seconds) with Histocolon (NITI-ON), and centrifuged at 36600×g for 20 minutes. To the resulting pellet was added 15 ml of the same buffer, and the mixture was treated with Histocolon similarly, and centrifuged. This washing work was performed two times. After centrifugation, to the resulting pellet was added 15 mL of a 50 mM Tris-HCl buffer (pH 7.4), and this was treated with Histocolon, and finally resuspended in a 10-fold amount of the same buffer, which was used as a crude membrane fraction (Life Sci. 48, 111-116, 1991). The prepared membrane specimen was frozen and stored at −80° C., and at an assay, the specimen was rapidly thawed, and diluted to about 900 μg/mL with a 50 mM Tris-HCl buffer (pH 7.4) after the centrifugation and Histocolon treatment, and was used in an experiment. For measuring a protein concentration of the membrane specimen, Micro BCA Protein Assay Kit (PIERCE) was used.
2) Method of δ Receptor Binding Assay and Data Analysis
Into a tube was placed 480 μl of a rat cerebrum membrane fraction to which 100 mM choline chloride, 3 mM MnCl2 and 100 nM DAMGO had been added, and this was incubated at 25° C. for 2 hours. […] After washing, the filter was transferred to a mini vial for liquid scintillation counter, 5 mL of a scintillator (Cleasol I) was added, this was allowed to stand overnight, and the radioactivity was measured for 3 minutes with a liquid scintillation counter Tri-Carb 2200CA (PACKARD).

opioid μ receptor = opioid μ receptor (Rattus norvegicus (Rat), UniProt P33535); assay: Binding assay to opioid μ receptor ([3H]-DAMGO, rat cerebrum membrane)
Protocol: as §1
as §2, with “(pH 7.0), the mixture” for “(pH 7.0), and the mixture”, “(pH 7.4), this was” for “(pH 7.4), and this was”, “Histocolon, and this was finally resuspended” for “Histocolon, and finally resuspended”, “and at a test, the specimen” for “and at an assay, the specimen”
2) Method of μ Receptor Binding Assay and Data Analysis
After washing, the filter was transferred to a mini vial for liquid scintillation counter, 5 mL of a scintillator (Cleasol I) was added, and this was allowed to stand overnight, and the radioactivity was measured for 3 minutes with a liquid scintillation counter Tri-Carb 2200CA (PACKARD).

[1] = tested on: carbon powder transport of inhibitory activity by morphine; assay: Mouse carbon powder transport assay (antagonism of morphine-inhibited small intestine transport); assay type: in vivo; settings: sc, 1 h, test compound 3 mg/kg subcutaneously, 15 minutes before morphine 3 mg/kg
Protocol: 1) Preparation of Test Diet (Carbon Powder)
Using a 10 w/v % arabic gum aqueous solution, a 5 w/v % active carbon solution was prepared, which was used as a test diet.
A ddY line male mouse (5 to 6 weeks old) was used. The mouse was fasted from about 20 or more hours before assay initiation, and water was given ad lib.
The test compound was dissolved in a solvent (DMAA/Solutol/5% meglumine=15/15/70).
Morphine hydrochloride was dissolved in a physiological saline. The test compound, the above solvent and morphine were all administered at a liquid amount of 10 mL/kg.
The test compound 3 mg/kg (test compound administration group) or the solvent (solvent administration group) were subcutaneously administered and, after 15 minutes, amount of 3 mg/kg of morphine was administered to all groups. As a control group, the solvent was subcutaneously administered and, after 15 minutes, a physiological saline was administered.
The test diet 10 mL/kg was orally administered at 15 minutes after administration of morphine. At thirty minutes after administration of the test diet (60 minutes after administration of the test substance), all mice were isolated from esophagus to an ileocecal part near a stomach cardia part. A distance from pyloric part of the stomach to an ileocecal part (full length of small intestine) and a distance until a carbon powder reaching front part (carbon powder movement distance) were measured. The antagonistic activity on the carbon powder transport of inhibitory activity by morphine was calculated as MPE (%) using the following equation. Transport rate (%)=(carbon powder movement distance)/full length of small intestine (cm))×100 M.P.E. (%)={(small intestine transport rate (%) of each individual of test compound administration group−average small intestine transport rate (%) of solvent administration group)/(average small intestine transport rate (%) of control group−average small intestine transport rate (%) of solvent administration group)}×100

[2] = [3H]-DADLE, rat cerebrum membrane fraction, read-out: Ki
[3] = [3H]-DAMGO, rat cerebrum membrane fraction, read-out: Ki

SMILES | Ki (opioid δ receptor) | Ki (opioid μ receptor) | percent antagonism of morphine-inhibited transport (M.P.E.) at 3 mg/kg [1] | Ki (opioid μ receptor; [3]) | also measured
CCCCNC(=O)C1=C(O)[C@@H]2Oc3c(O)ccc4c3[C@@]23CCN(CC2CC2)[C@H](C4)[C@]3(O)C1 [Compound I-3] | 8.76 nM |  |  |  | 
CC(C)NC(=O)C1=C(O)[C@@H]2Oc3c(O)ccc4c3[C@@]23CCN(CC2CC2)[C@H](C4)[C@]3(O)C1 [Compound I-4, 7-Isopropylaminocarbonylnaltrexone] | 7.38 nM | 5.18 nM |  |  | 
O=C(C1=C(O)[C@@H]2Oc3c(O)ccc4c3[C@@]23CCN(CC2CC2)[C@H](C4)[C@]3(O)C1)N1CCCC1 [Compound I-7] | 7.4 nM |  |  |  | 
O=C(Nc1ccccc1)C1=C(O)[C@@H]2Oc3c(O)ccc4c3[C@@]23CCN(CC2CC2)[C@H](C4)[C@]3(O)C1 [Compound I-10] | 19.9 nM | 4.05 nM |  |  | 
CN(Cc1ccccc1)C(=O)C1=C(O)[C@@H]2Oc3c(O)ccc4c3[C@@]23CCN(CC2CC2)[C@H](C4)[C@]3(O)C1 [Compound I-13] | 5.02 nM |  |  |  | 
O=C(NCCOc1ccccc1)C1=C(O)[C@@H]2Oc3c(O)ccc4c3[C@@]23CCN(CC2CC2)[C@H](C4)[C@]3(O)C1 [Compound I-30] | 5.34 nM |  |  |  | 
CN(C)c1ccc(NC(=O)C2=C(O)[C@@H]3Oc4c(O)ccc5c4[C@@]34CCN(CC3CC3)[C@H](C5)[C@]4(O)C2)cc1 [Compound I-39] | 41.8 nM | 0.33 nM | 52% |  | 
COC(=O)C(C)(C)NC(=O)C1=C(O)[C@@H]2Oc3c(O)ccc4c3[C@@]23CCN(CC2CC2)[C@H](C4)[C@]3(O)C1 [Compound I-49] |  | 16.5 nM | 80% |  | Ki (opioid δ receptor; [2]): 3.99 nM
O=C(Nc1cccnc1)C1=C(O)[C@@H]2Oc3c(O)ccc4c3[C@@]23CCN(CC2CC2)[C@H](C4)[C@]3(O)C1 [Compound I-92] | 5.23 nM |  |  |  | 
COc1ccc(NC(=O)C2=C(O)[C@@H]3Oc4c(O)ccc5c4[C@@]34CCN(CC3CC3)[C@H](C5)[C@]4(O)C2)cn1 [Compound I-118] |  |  | 55.6% |  | 
O=C(NS(=O)(=O)c1cccc(Cl)c1)C1=C(O)[C@@H]2Oc3c(O)ccc4c3[C@@]23CCN(CC2CC2)[C@H](C4)[C@]3(O)C1 [Compound I-122] |  |  | 31.5% | 2.7 nM | 
COc1ccc(S(=O)(=O)NC(=O)C2=C(O)[C@@H]3Oc4c(O)ccc5c4[C@@]34CCN(CC3CC3)[C@H](C5)[C@]4(O)C2)cc1 [Compound I-123] |  |  | 44.1% | 1.68 nM | 
O=C(NS(=O)(=O)c1ccc(F)cc1)C1=C(O)[C@@H]2Oc3c(O)ccc4c3[C@@]23CCN(CC2CC2)[C@H](C4)[C@]3(O)C1 [Compound I-124] |  |  | 46.6% |  | Ki (opioid μ receptor; read-out: Ki): 3.9 nM
COC(=O)C1(NC(=O)C2=C(O)[C@@H]3Oc4c(O)ccc5c4[C@@]34CCN(CC3CC3)[C@H](C5)[C@]4(O)C2)CCCC1 [Compound I-133] |  |  | 107% | 4.99 nM | Ki (opioid δ receptor; [2]): 9.85 nM
COC(=O)C1(NC(=O)C2=C(O)[C@@H]3Oc4c(O)ccc5c4[C@@]34CCN(CC3CC3)[C@H](C5)[C@]4(O)C2)CC1 [Compound I-135] |  |  | 59.7% |  | Ki (opioid δ receptor; read-out: Ki): 9.76 nM; Ki (opioid μ receptor; read-out: Ki): 1.58 nM
Cc1cc(NC(=O)C2=C(O)[C@@H]3Oc4c(O)ccc5c4[C@@]34CCN(CC3CC3)[C@H](C5)[C@]4(O)C2)on1 [Compound I-138] |  |  | 55.8% | 15.5 nM | 
O=C(N[C@H]1CCOC1=O)C1=C(O)[C@@H]2Oc3c(O)ccc4c3[C@@]23CCN(CC2CC2)[C@H](C4)[C@]3(O)C1 [Compound I-145] |  |  | 60.2% | 28.1 nM | Ki (opioid δ receptor; [2]): 13.9 nM
O=C(Nc1cccc(C(=O)O)c1)C1=C(O)[C@@H]2Oc3c(O)ccc4c3[C@@]23CCN(CC2CC2)[C@H](C4)[C@]3(O)C1 [Compound I-188] | 3.01 nM | 17.3 nM | 74.6% |  | 
COC(=O)C1(NC(=O)C2=C(O)[C@@H]3Oc4c(O)ccc5c4[C@@]34CCN(CC3CC3)[C@H](C5)[C@]4(O)C2)CCC1 [Compound I-199] | 12.8 nM | 9.45 nM | 62.8% |  | 
O=C(Nc1ccc([N+](=O)[O-])cn1)C1=C(O)[C@@H]2Oc3c(O)ccc4c3[C@@]23CCN(CC2CC2)[C@H](C4)[C@]3(O)C1 [Compound I-208] | 13.3 nM | 5.89 nM | 81.2% |  | 
CCN(CC)S(=O)(=O)c1ccc(OC)c(NC(=O)C2=C(O)[C@@H]3Oc4c(O)ccc5c4[C@@]34CCN(CC3CC3)[C@H](C5)[C@]4(O)C2)c1 [Compound I-229] | 5.9 nM |  | 39.7% | 1.3 nM | 
Cc1cc(=O)[nH]c2cc(NC(=O)C3=C(O)[C@@H]4Oc5c(O)ccc6c5[C@@]45CCN(CC4CC4)[C@H](C6)[C@]5(O)C3)ccc12 [Compound I-240] | 11.5 nM |  | 36.3% | 6.85 nM | 
COc1cc(NC(=O)C2=C(O)[C@@H]3Oc4c(O)ccc5c4[C@@]34CCN(CC3CC3)[C@H](C5)[C@]4(O)C2)ncn1 [Compound I-243] | 5.2 nM | 5.28 nM | 52.6% |  | 
CC(C)NC(=O)C1=C(NS(=O)(=O)c2ccc(Cl)cc2)[C@@H]2Oc3c(O)ccc4c3[C@@]23CCN(CC2CC2)[C@H](C4)[C@]3(O)C1 [Compound I-244] |  |  | 71.6% |  | 
Cc1ccc2nc(=O)c3c(n2c1)[C@@H]1Oc2c(O)ccc4c2[C@@]12CCN(CC1CC1)[C@H](C4)[C@]2(O)C3 [Compound I-267] |  |  | 60% | 0.84 nM | Ki (opioid δ receptor; [2]): 41.5 nM
COCC1(NC(=O)C2=C(O)[C@@H]3Oc4c(O)ccc5c4[C@@]34CCN(CC3CC3)[C@H](C5)[C@]4(O)C2)CC1 [Compound I-283] | 3.73 nM | 20.1 nM | 63.7% |  | 
CC(C)(NC(=O)C1=C(O)[C@@H]2Oc3c(O)ccc4c3[C@@]23CCN(CC2CC2)[C@H](C4)[C@]3(O)C1)c1nc(-c2ccccc2)no1 [Compound I-284] |  | 1.13 nM | 79.6% |  | Ki (opioid δ receptor; [2]): 0.91 nM
Cc1noc(C(C)(C)NC(=O)C2=C(O)[C@@H]3Oc4c(O)ccc5c4[C@@]34CCN(CC3CC3)[C@H](C5)[C@]4(O)C2)n1 [Compound I-285] | 5.77 nM |  | 82.5% | 7.29 nM | 
COCC(C)(C)NC(=O)C1=C(O)[C@@H]2Oc3c(O)ccc4c3[C@@]23CCN(CC2CC2)[C@H](C4)[C@]3(O)C1 [Compound I-286] | 2.46 nM | 14 nM | 70.6% |  | 
